# Laboratory results: paper PMC9403976, “Elucidating the path to Plasmodium prolyl-tRNA synthetase inhibitors that overcome halofuginone resistance” (Nature Communications, 2022)
# Several values for one entry are separate records, joined by “and”; a condition that tells them apart may be missing. Identical values can stand only once.
# How the values were obtained:
# HsProRS = HsProRS (Homo sapiens, UniProt P07814); test: TR-FRET ligand displacement assay with tracer MAT379 (CoraFluor-1-Halo and anti-His6 antibody formats); type: binding; set-up: made in house; host or cells: E. coli SoluBL-21; conditions: for TR-FRET dose-response, normalized signal (SI Fig 11): individual replicates; for normalized TR-FRET signal (dose-response replicates): SI Fig 15
# [1] = tested on: HFGR-I P. falciparum (elevated proline homeostasis and PfcProRS^L482H); test: P. falciparum ABS growth assay, SYBR Green, 72 h, HFGR-I parasites; type: cell-based, Plasmodium falciparum; conditions: HFGR-I
# In short: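 Growth inhibition of the resistant and induced Dd2 lines is measured over 72 h in triplicate dose-response, starting at 1% parasitemia and 1% hematocrit. SYBR Green 1 staining gives the fluorescence readout, normalized between 10 μM dihydroartemisinin and no-compound wells.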
# Chain of HsProRS (P07814 996-1512): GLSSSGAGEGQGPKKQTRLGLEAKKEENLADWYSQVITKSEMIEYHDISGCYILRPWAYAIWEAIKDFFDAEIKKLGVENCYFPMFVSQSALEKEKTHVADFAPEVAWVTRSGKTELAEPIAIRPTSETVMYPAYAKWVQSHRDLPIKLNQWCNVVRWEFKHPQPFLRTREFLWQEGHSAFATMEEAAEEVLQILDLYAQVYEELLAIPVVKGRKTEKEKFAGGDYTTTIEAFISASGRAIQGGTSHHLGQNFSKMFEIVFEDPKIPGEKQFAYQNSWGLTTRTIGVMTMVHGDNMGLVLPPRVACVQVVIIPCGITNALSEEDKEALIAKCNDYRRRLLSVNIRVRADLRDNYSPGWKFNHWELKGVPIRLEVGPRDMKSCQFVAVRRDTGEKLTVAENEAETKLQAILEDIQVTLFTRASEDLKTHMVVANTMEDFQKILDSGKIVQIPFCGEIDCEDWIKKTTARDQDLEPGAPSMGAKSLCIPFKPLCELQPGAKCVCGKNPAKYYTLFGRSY
structure (smiles),measurement,setting,value
"O=C(NC1Cc2ccccc2C1)c1nccnc1NC(=O)C1CCCCC1 [compound 2, reference compound]",Kd,"HsProRS; HsProRS (KD [nM]) + ATP, 500 μM ATP, 250 nM MAT379",954 nM
same,Kd,"HsProRS; HsProRS (KD [nM]) −, absence of substrates, 250 nM MAT379",371 nM
same,Kd,"HsProRS; HsProRS - best Kd, SI Fig 16a, values on -log scale",2.16 nM
same,"normalized TR-FRET ligand displacement signal, dose-response replicates (SI Fig 6)",HsProRS; Log[inhibitor] (M) -5.000,1.03E-01 and 7.51E-02 and 1.04E-01
same,"TR-FRET dose-response, normalized signal (SI Fig 11)",HsProRS; Log[inhibitor] (M) -5.000,8.64E-04 and 3.42E-02 and 3.40E-02
same,"normalized TR-FRET ligand displacement signal, dose-response replicates (SI Fig 6)",HsProRS; Log[inhibitor] (M) -5.301,1.90E-01 and 1.89E-01 and 1.86E-01
same,"TR-FRET dose-response, normalized signal (SI Fig 11)",HsProRS; Log[inhibitor] (M) -5.301,7.30E-02 and 5.51E-02 and 3.97E-02
same,"normalized TR-FRET ligand displacement signal, dose-response replicates (SI Fig 6)",HsProRS; Log[inhibitor] (M) -5.602,3.08E-01 and 2.37E-01 and 3.84E-01
same,"TR-FRET dose-response, normalized signal (SI Fig 11)",HsProRS; Log[inhibitor] (M) -5.602,1.33E-01 and 1.75E-01 and 1.42E-01
same,"normalized TR-FRET ligand displacement signal, dose-response replicates (SI Fig 6)",HsProRS; Log[inhibitor] (M) -5.903,6.24E-01 and 5.01E-01 and 5.97E-01
same,"TR-FRET dose-response, normalized signal (SI Fig 11)",HsProRS; Log[inhibitor] (M) -5.903,2.61E-01 and 2.29E-01 and 2.70E-01
same,"normalized TR-FRET ligand displacement signal, dose-response replicates (SI Fig 6)",HsProRS; Log[inhibitor] (M) -6.204,7.10E-01 and 7.38E-01 and 7.90E-01
same,"TR-FRET dose-response, normalized signal (SI Fig 11)",HsProRS; Log[inhibitor] (M) -6.204,4.85E-01 and 4.00E-01 and 4.14E-01
same,"normalized TR-FRET ligand displacement signal, dose-response replicates (SI Fig 6)",HsProRS; Log[inhibitor] (M) -6.505,9.53E-01 and 9.22E-01 and 9.58E-01
same,"TR-FRET dose-response, normalized signal (SI Fig 11)",HsProRS; Log[inhibitor] (M) -6.505,5.65E-01 and 5.68E-01 and 5.80E-01
same,"normalized TR-FRET ligand displacement signal, dose-response replicates (SI Fig 6)",HsProRS; Log[inhibitor] (M) -6.806,8.96E-01 and 9.59E-01 and 9.45E-01
same,"TR-FRET dose-response, normalized signal (SI Fig 11)",HsProRS; Log[inhibitor] (M) -6.806,6.77E-01 and 7.64E-01 and 7.01E-01
same,"normalized TR-FRET ligand displacement signal, dose-response replicates (SI Fig 6)",HsProRS; Log[inhibitor] (M) -7.107,1.10E+00 and 1.02E+00 and 1.05E+00
same,"TR-FRET dose-response, normalized signal (SI Fig 11)",HsProRS; Log[inhibitor] (M) -7.107,8.54E-01 and 8.95E-01 and 8.55E-01
same,"normalized TR-FRET ligand displacement signal, dose-response replicates (SI Fig 6)",HsProRS; Log[inhibitor] (M) -7.408,1.04E+00
same,"TR-FRET dose-response, normalized signal (SI Fig 11)",HsProRS; Log[inhibitor] (M) -7.408,8.94E-01 and 8.78E-01 and 9.74E-01
same,"normalized TR-FRET ligand displacement signal, dose-response replicates (SI Fig 6)",HsProRS; Log[inhibitor] (M) -7.709,9.76E-01 and 1.06E+00 and 1.03E+00
same,"TR-FRET dose-response, normalized signal (SI Fig 11)",HsProRS; Log[inhibitor] (M) -7.709,9.26E-01 and 9.17E-01 and 9.24E-01
same,"normalized TR-FRET ligand displacement signal, dose-response replicates (SI Fig 6)",HsProRS; Log[inhibitor] (M) -8.010,9.42E-01 and 1.05E+00 and 9.60E-01
same,"TR-FRET dose-response, normalized signal (SI Fig 11)",HsProRS; Log[inhibitor] (M) -8.010,9.79E-01 and 9.27E-01 and 9.78E-01
same,"normalized TR-FRET ligand displacement signal, dose-response replicates (SI Fig 6)",HsProRS; Log[inhibitor] (M) -8.311,1.02E+00 and 9.93E-01 and 1.06E+00
same,"TR-FRET dose-response, normalized signal (SI Fig 11)",HsProRS; Log[inhibitor] (M) -8.311,9.15E-01 and 9.66E-01 and 9.82E-01
same,"normalized TR-FRET ligand displacement signal, dose-response replicates (SI Fig 6)",HsProRS; Log[inhibitor] (M) -8.612,9.95E-01 and 1.01E+00 and 1.07E+00
same,"TR-FRET dose-response, normalized signal (SI Fig 11)",HsProRS; Log[inhibitor] (M) -8.612,9.61E-01 and 9.59E-01 and 9.62E-01
same,"normalized TR-FRET ligand displacement signal, dose-response replicates (SI Fig 6)",HsProRS; Log[inhibitor] (M) -8.913,1.02E+00 and 1.03E+00 and 9.75E-01
same,"TR-FRET dose-response, normalized signal (SI Fig 11)",HsProRS; Log[inhibitor] (M) -8.913,9.90E-01 and 9.95E-01 and 9.69E-01
same,"normalized TR-FRET ligand displacement signal, dose-response replicates (SI Fig 6)",HsProRS; Log[inhibitor] (M) -9.214,9.83E-01 and 1.03E+00 and 1.00E+00
same,"TR-FRET dose-response, normalized signal (SI Fig 11)",HsProRS; Log[inhibitor] (M) -9.214,9.62E-01 and 1.02E+00 and 1.04E+00
same,normalized TR-FRET signal (dose-response replicates),HsProRS; Log[inhibitor] (M) -4.99976,1.25E-01 and 2.68E-01 and 1.89E-01
same,normalized TR-FRET signal (dose-response replicates),HsProRS; Log[inhibitor] (M) -5.3009,2.77E-01 and 4.13E-01 and 4.17E-01
same,normalized TR-FRET signal (dose-response replicates),HsProRS; Log[inhibitor] (M) -5.60199,5.80E-01 and 6.20E-01 and 4.83E-01
same,normalized TR-FRET signal (dose-response replicates),HsProRS; Log[inhibitor] (M) -5.90248,7.22E-01 and 7.32E-01 and 6.10E-01
same,normalized TR-FRET signal (dose-response replicates),HsProRS; Log[inhibitor] (M) -6.20323,6.14E-01 and 7.99E-01 and 9.70E-01
same,normalized TR-FRET signal (dose-response replicates),HsProRS; Log[inhibitor] (M) -6.51347,9.27E-01 and 8.30E-01 and 1.04E+00
same,normalized TR-FRET signal (dose-response replicates),HsProRS; Log[inhibitor] (M) -6.79595,1.19E+00 and 9.68E-01 and 1.04E+00
same,normalized TR-FRET signal (dose-response replicates),HsProRS; Log[inhibitor] (M) -7.10794,9.40E-01 and 8.31E-01 and 8.97E-01
same,normalized TR-FRET signal (dose-response replicates),HsProRS; Log[inhibitor] (M) -7.40526,6.74E-01 and 8.60E-01 and 9.73E-01
same,normalized TR-FRET signal (dose-response replicates),HsProRS; Log[inhibitor] (M) -7.7137,9.61E-01 and 8.55E-01 and 9.51E-01
same,normalized TR-FRET signal (dose-response replicates),HsProRS; Log[inhibitor] (M) -8,9.74E-01 and 7.58E-01 and 8.90E-01
same,normalized TR-FRET signal (dose-response replicates),HsProRS; Log[inhibitor] (M) -8.331,8.05E-01 and 1.09E+00 and 1.00E+00
same,normalized TR-FRET signal (dose-response replicates),HsProRS; Log[inhibitor] (M) -8.57403,1.32E+00 and 1.15E+00 and 1.19E+00
same,normalized TR-FRET signal (dose-response replicates),HsProRS; Log[inhibitor] (M) -8.87506,9.35E-01 and 9.99E-01 and 1.09E+00
same,normalized TR-FRET signal (dose-response replicates),HsProRS; Log[inhibitor] (M) -9.17609,1.03E+00 and 1.04E+00 and 1.09E+00
same,"parasite growth, replicate wells (Fig 1b)",[1]; Log[inhibitor] (M) -5.000,6.00E+00 (2×) and 7.00E+00
same,"parasite growth, replicate wells (Fig 1b)",[1]; Log[inhibitor] (M) -5.408,7.00E+00 (2×) and 8.00E+00
same,"parasite growth, replicate wells (Fig 1b)",[1]; Log[inhibitor] (M) -5.816,1.20E+01 (2×) and 1.40E+01
